Patent publication US11518742B2 (priority 2020, dated 2022)

What was measured:
[1] = test system: Salmonella typhimurium tester strains; experiment: Bacterial Reverse Mutation Test (Ames test), Salmonella typhimurium
[2] = molecular target: hERG potassium channel current (IKr) (Homo sapiens, UniProt Q12809); experiment: cell-based
Excerpt: This assay is employed as a screen to assess potential risks for QT interval prolongation.

[3] = Maximum tolerated dose followed by 7-day repeat-dose toxicology in rats (Study 700040); format: in vivo, rat; details: both sexes, Sprague-Dawley, rat, in vivo, inhaled or intranasal; single intranasal administration
Protocol: (§1) The study consisted of 2 parts. […] The doses used in part 1 were 15, 30, 50, 65, and 75 mg/kg. Each subsequent dose was administered following at least 24 hours from the commencement of the previous dose. There were 2 males and 2 females in each dose group.
(§2) During Phase I, assessments of mortality, clinical signs and body weights were performed. […] The necropsy consisted of an external examination, including reference to all clinically-recorded lesions, as well as a detailed internal examination.
(§3) During Phase 2, assessments of mortality, clinical signs and body weights were performed. Following dosing, all animals were euthanized and subjected to a necropsy examination on Day 8. The necropsy consisted of an external examination, including reference to all clinically-recorded lesions, as well as a detailed internal examination. Study plan specific tissues/organs were collected and retained, then trimmed and preserved promptly once the animal was euthanized but these were not further examined microscopically.

Sprague-Dawley rats = experiment: as above; format: in vivo, rat
Protocol: as §1, §2, §3

[4] = test system: Chinese hamster ovary (CHO)-K1 cells; experiment: In vitro micronucleus test (flow cytometry); format: cell-based
Excerpt: The treatment with the vehicle/negative and positive controls was concurrently performed.

[5] = Toxicokinetics in dog MTD study (Study 62958); format: in vivo
Protocol: (§4) During Phase 2, assessments of mortality, clinical signs, body weights and food consumption were performed. […] Following the last dosing, all animals were euthanized and subjected to a necropsy examination on Day 8. The necropsy consisted of an external examination; including reference to all clinically-recorded lesions, as well as a detailed internal examination. Study plan specific tissues/organs were collected and preserved following necropsy but were not further examined microscopically.
There were no sex differences in any of the measured toxicokinetic parameters on either occasion.

male Sprague-Dawley rats = experiment: Functional Observational Battery (FOB), single intranasal administration (ITR study 15951); format: in vivo, rat
Protocol: The test and control/vehicle items were administered by single dose intranasal administration to both nostrils, as shown in Table 7.
Parameters monitored included mortality and clinical signs. General behavioral changes were assessed using FOB at 6 timepoints: before dosing, and at 15 minutes, 1, 2, 4, and 24 hours postdosing. On each occasion, the FOB was performed at 4 stages: when the animals were in their home cage, while handling the animals, when the animals were freely moving in an open-field, and when they received diverse stimuli for reactivity evaluation. The body temperature and neuromuscular strength were also measured on each of the occasions detailed above.

[6] = Maximum tolerated dose followed by 7-day repeat-dose toxicology in dogs (Study 62958); format: in vivo, dog; details: both sexes, dog, in vivo, inhaled or intranasal; intranasal instillation
Protocol: (§5) In support of these objectives, the study consisted of 2 individual phases.
(§6) The test item was administered once by intranasal instillation to one male and female dog for up to 5 dose levels until the highest tolerable dose (MTD) was determined as described in Table 11.
as §4

dogs = experiment: as above; format: in vivo, dog
Protocol: as §5, §6, §4

Beagle dogs = experiment: 14-day repeat-dose intranasal toxicity study with 14-day recovery in dogs (Study 62959); format: in vivo, dog
Protocol: (§7) Assessments of mortality, clinical signs, olfactory reflex, body weights, food consumption, ophthalmology, and electrocardiograms were performed. In addition, clinical pathology assessments (hematology, coagulation, clinical chemistry and urinalysis) were evaluated once pretreatment and at termination. Blood samples were collected from the jugular vein of all animals on Days 1 and 14, at up to 8 time points relative to treatment, for analysis of test item concentration in plasma and the subsequent calculation of toxicokinetic parameters. Following dosing, the Main animals were euthanized and subjected to a complete necropsy examination on Day 15. […] All Main and Recovery study animals underwent complete necropsy examinations, selected tissues/organs were retained, and microscopic evaluations of a standard set of tissues were performed.

[7] = as above; format: in vivo, dog; details: both sexes, Beagle, dog, in vivo, inhaled or intranasal; 14 consecutive days intranasal, 14-day recovery
Protocol: as §7

[8] = Summary of clinical observations in applicant-sponsored dog studies; format: in vivo; details: beagle, in vivo, other: intranasal instillation; Dog; HED 50 mg; read-out: NOAEL determined in the 14-day toxicology studies
Excerpt: (§8) Based on preliminary data from another ongoing study in dogs, it has been observed that the site of blood sampling in dogs may impact the measured plasma exposure. Samples from the jugular vein may result in higher apparent exposure levels than samples from the cephalic vein, which might be due to the local transmucosal route of administration (also reported in the scientific literature (Illum, 2003; Sohlberg, 2013)). Therefore, dose escalation criteria for the Phase 1 Single Ascending Dose study are based on assessment of clinical criteria, safety factors and exposure. A maximum dose of 14 mg has been designated.

Dog = experiment: as above; format: in vivo; details: Dog 1.0 mg/kg (= 33 mg HED); preliminary data, ongoing study
Excerpt: as §8

[9] = Summary of clinical observations in applicant-sponsored rat studies; details: Sprague Dawley, in vivo, other: intranasal instillation, HED 48 mg, read-out: NOAEL determined in the 14-day toxicology studies
Excerpt: as §8

Chain of hERG potassium channel current (IKr) (Q12809 whole entry): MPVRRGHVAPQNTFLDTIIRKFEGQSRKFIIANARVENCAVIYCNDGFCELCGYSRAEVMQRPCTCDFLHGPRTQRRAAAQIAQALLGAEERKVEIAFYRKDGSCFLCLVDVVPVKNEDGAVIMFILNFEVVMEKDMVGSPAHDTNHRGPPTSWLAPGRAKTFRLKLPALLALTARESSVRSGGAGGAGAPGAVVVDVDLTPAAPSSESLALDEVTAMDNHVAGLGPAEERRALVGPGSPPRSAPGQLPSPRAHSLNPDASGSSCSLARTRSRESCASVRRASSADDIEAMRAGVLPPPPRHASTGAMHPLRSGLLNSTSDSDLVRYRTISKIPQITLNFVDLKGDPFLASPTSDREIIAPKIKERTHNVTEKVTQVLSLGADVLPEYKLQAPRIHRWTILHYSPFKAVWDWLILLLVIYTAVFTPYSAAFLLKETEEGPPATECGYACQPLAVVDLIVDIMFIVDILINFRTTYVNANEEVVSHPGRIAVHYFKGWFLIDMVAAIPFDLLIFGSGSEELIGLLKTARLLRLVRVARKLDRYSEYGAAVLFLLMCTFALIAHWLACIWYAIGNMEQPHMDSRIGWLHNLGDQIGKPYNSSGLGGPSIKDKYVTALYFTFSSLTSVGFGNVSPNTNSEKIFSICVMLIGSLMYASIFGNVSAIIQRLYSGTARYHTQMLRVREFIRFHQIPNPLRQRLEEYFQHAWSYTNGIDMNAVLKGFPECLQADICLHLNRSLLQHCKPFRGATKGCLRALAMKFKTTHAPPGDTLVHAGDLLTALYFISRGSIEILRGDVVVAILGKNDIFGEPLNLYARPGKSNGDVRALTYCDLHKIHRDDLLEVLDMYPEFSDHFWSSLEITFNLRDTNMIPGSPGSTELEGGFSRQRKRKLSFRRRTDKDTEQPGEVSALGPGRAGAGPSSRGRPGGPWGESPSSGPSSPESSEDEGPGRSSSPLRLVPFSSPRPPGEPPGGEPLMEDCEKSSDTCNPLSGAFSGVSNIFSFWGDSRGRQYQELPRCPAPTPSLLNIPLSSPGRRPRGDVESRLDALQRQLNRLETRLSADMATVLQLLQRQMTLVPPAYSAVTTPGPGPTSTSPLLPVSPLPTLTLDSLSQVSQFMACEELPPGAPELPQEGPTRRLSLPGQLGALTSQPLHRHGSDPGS

With `COc1ccc2[nH]cc(CCN(C)C)c2c1` [5MeODMT, 5-methoxy-N,N-dimethyltryptamine] the Cytotoxicity ([1]; 1600 μg/plate, all S. typhimurium strains) was “slight cytotoxicity”, the “Repeat test, revertant colonies” value ([1]; TA1537 and TA98, absence of S9 mix, up to 2000 μg/plate) was “no increases in the revertant colonies number per plate” and the “Mutagenic potential (conclusion)” value ([1]; absence or presence of S9) was “no mutagenic potential”. The IC50 [2] was 8.69 µM, the inhibition at 1 µM ([2]; human) was 5.03 ± 1.95% and the inhibition at 3 µM ([2]; human) was 23.8 ± 6.1%. It also gave an inhibition at 10 µM ([2]; human) of 52.7 ± 2.61%, an inhibition at 35 µM ([2]; human) of 82.2 ± 1.91% and an MTD at 14 days [3] of 75 mg/kg. The Body weight gain (Sprague-Dawley rats; 75 mg/kg for 7 consecutive days) was “slightly suppressed for both sexes”, the “Tolerability, 7 consecutive days” value (Sprague-Dawley rats; 75 mg/kg once daily intranasal) was “tolerated” and the “Tolerability, single intranasal administration” value (Sprague-Dawley rats; dose levels up to 75 mg/kg) was “tolerated”. For the same compound, the “Mortality and gross pathology” value (Sprague-Dawley rats; single dose 15, 30, 50, 65, 75 mg/kg) was “no mortality and gross pathology findings at any dose”, the “Chromosome-damaging potential (conclusion)” value [4] was “no chromosome-damaging potential” and the “Micronuclei or hypodiploid cells” value ([4]; all treatment regimens, absence or presence of S9) was “did not induce any increases in micronuclei or hypodiploid cells”. For the same compound, the Cytotoxicity or precipitation ([4]; up to the maximal dose level of 300 μg/mL) was “No cytotoxicity or precipitation”.
In the case of `COc1ccc2[nH]cc(CCN(C)C)c2c1` [BPL-5MEO, 5-methoxy-N,N-dimethyltryptamine], the “Accumulation over the 7-day treatment period” value ([5]; daily intranasal instillation) is reported as “did not accumulate”, the Tmax ([5]; dog, plasma, inhaled or intranasal, dogs, Days 1 and 7, both sexes) is reported as 2 to 15 min and the “Clinical sign in one animal” value (male Sprague-Dawley rats; 10 mg/kg) is reported as “twitching”. For the same compound, the “Resolution of clinical signs and FOB changes” value (male Sprague-Dawley rats; 1.5, 3, and 10 mg/kg) was “fully resolved within 1 or 2 hours following dosing”, the “Clinical signs in some animals” value (male Sprague-Dawley rats; 3 and 10 mg/kg doses) was “Tremors, salivation, and gasping” and the FOB behavioral domain (male Sprague-Dawley rats; 15 minutes postdose, comparable to control at 1-hour postdose) was “transient decreased activity, lying on the cage floor, and decreased rearing”. For the same compound, the “Clinical signs immediately following dosing” value (male Sprague-Dawley rats; all dose groups, transient) was “decreased activity, lying on the cage floor, shallow/increased respiration and dilated pupils”, the “FOB neurological (sensorimotor)/neuromuscular domain” value (male Sprague-Dawley rats; all dose levels, comparable to control at 1-hour postdose) was “transient changes in gait (difficulty in movement)” and the FOB autonomic domain (male Sprague-Dawley rats; all dose levels, comparable with control at 2 hours postdose) was “salivation, piloerection, increased respiration, dilated pupils and changes in body temperature”. For the same compound, the MTD [6] was 2.5 mg/kg, the Mortality and bodyweights (dogs; dose escalation phase, 2 to 5 mg/kg) was “no BPL-5MEO-related effects on mortality or bodyweights” and the “Duration of convulsion in the male animal” value (dogs; last escalating dose 3.5 mg/kg/day) was 8 min. The “Effect on reproductive tissues” value (Beagle dogs; 14-day pivotal GLP intranasal toxicity study, dogs) was “no evidence of an adverse effect on reproductive tissues”, the “Triglyceride (mmol/L), Mean ± SD Day 14” value (Beagle dogs; Group 2, 0.4 mg/kg/day, Females) was 0.46 ± 0.61 mmol/L and the “Triglyceride (mmol/L), Mean ± SD Day 14” value (Beagle dogs; Group 2, 0.4 mg/kg/day, Males) was 0.40 ± 0.11 mmol/L. The “Triglyceride (mmol/L), Mean ± SD Day 14” value (Beagle dogs; Group 3, 0.8 mg/kg/day, Females) was 0.47 ± 0.22 mmol/L, the “Triglyceride (mmol/L), Mean ± SD Day 14” value (Beagle dogs; Group 3, 0.8 mg/kg/day, Males) was 0.44 ± 0.07 mmol/L and the “Time to resolution of clinical signs” value (Beagle dogs; all treated groups) was ≤ 90 min. For the same compound, the Transient clinical observations (Beagle dogs; animals in all treated groups) was “incoordination, vocalization, mydriasis, decreased or increased activity, increased respiration, gnawing cage wire, excessive licking of nose or lips and circling”, the NOAEL at 14 days [7] was 1.5 mg/kg/day and the NOAEL at 14 days [8] was 1.5 mg/kg. For the same compound, the Clinical observations (Dog) was “Slighttremor” and the NOAEL at 14 days [9] was 5 mg/kg.
